{
  "source": "patent US20230255972A1",
  "about": "“PYRIMIDINE COMPOUND-CONTAINING COMBINATION TO BE USED IN TUMOR TREATMENT” (TAIHO PHARMACEUTICAL CO., LTD., priority 2020, published 2023)",
  "key": {"NCI-N87-Luc": {"system": "NCI-N87-Luc", "assay": "Antitumor effect (in vivo) on direct brain transplantation models of NCI-N87-luc", "design": "species or system nude mouse", "details": "25 mg/kg/day po once a day, Days 1-21", "from_the_text": "Test Example 11 Antitumor Effect Confirmation Test (In Vivo) on Direct Brain Transplantation Models, into which Luciferase Gene-Introduced HER2 Expressing Cell Line (NCI-N87-luc) is Directly Transplanted\nIn order to confirm the antitumor effects of a test compound on direct brain transplantation models, NCI-N87-Luc, which was obtained by introducing a Luciferase gene into NCI-N87 that was a human stomach cancer tumor cell line purchased from American Type Culture Collection, was used.\nThe NCI-N87-Luc cells were re-suspended in PBS in a concentration of 6.25×10^7 cells/mL.\nA microdrill was used to drill a hole in the skull, and then, using a needle, a manipulator, and a syringe pump, 4 μL of the cell suspension was transplanted into the brain at a rate of 0.8 μL/min.\nAs a reference of the amount of brain tumor, approximately 3 weeks after the transplantation, Total Flux (Photon/sec) was measured in all of the survival cases, using IVIS (PerkinElmer, Inc., model: Lumina II). Based on the obtained results, 6 animals were assigned to each group, using the grouping program of MiSTAT (Ver. 2.00).\nThe test compound was orally administered to the mice once a day, every day, for 21 days from the following day of the grouping (Days 1-21). […]\nThe value obtained by logarithmic transformation (Log 10) of the total flux on Day 22 in each group was analyzed by a Dunnett's test or a Student-t test. […]"}, "SK-BR-3 cells": {"system": "SK-BR-3 cells", "assay": "Growth inhibitory activity against HER2 expressing cell line SK-BR-3", "type": "cell-based", "details": "Homo sapiens, SK-BR-3, 72 h; 3 days, CellTiter-Glo 2.0", "protocol": "Test Example 3 Measurement of Growth Inhibitory Activity Against HER2 Expressing Cell Line\nSK-BR-3 cells as a HER2 overexpressing human breast cancer cell line were suspended in a McCoy's 5a medium (manufactured by Life Technologies) supplemented with 10% fetal bovine serum. The cell suspension was seeded in each well of a 384-well flat-bottom microplate, and was then cultured in a 5% carbon dioxide gas-containing culture vessel at 37° C. for 1 day. Thereafter, the compound of the present invention was dissolved in DMSO, and the pyrimidine compound was diluted to 500 times the final concentration in DMSO. The compound in the DMSO solution was diluted with DMSO solution or the medium used in the suspension of the cells, and the obtained solution was then added to each well of the culture plate so that the final concentration of DMSO was 0.2%. The obtained mixture was further cultured in the 5% carbon dioxide gas-containing culture vessel at 37° C. for 3 days. After completion of the culture for 3 days in the presence of the compound, the cells were counted using CellTiter-Glo 2.0 (manufactured by Promega), and the growth inhibition percentage was then calculated according to the following equation.\nGrowth inhibitory percentage (%)=(C−T)/(C)×100 […]"}, "EGFR [T790M/L858R]": {"target": "T1, EGFR [T790M/L858R] (Homo sapiens, UniProt P00533, L858R/T790M)", "T1 construct": "purchased Carna Biosciences, Inc", "T1 sequence (P00533 25-1210 T790M/L858R)": "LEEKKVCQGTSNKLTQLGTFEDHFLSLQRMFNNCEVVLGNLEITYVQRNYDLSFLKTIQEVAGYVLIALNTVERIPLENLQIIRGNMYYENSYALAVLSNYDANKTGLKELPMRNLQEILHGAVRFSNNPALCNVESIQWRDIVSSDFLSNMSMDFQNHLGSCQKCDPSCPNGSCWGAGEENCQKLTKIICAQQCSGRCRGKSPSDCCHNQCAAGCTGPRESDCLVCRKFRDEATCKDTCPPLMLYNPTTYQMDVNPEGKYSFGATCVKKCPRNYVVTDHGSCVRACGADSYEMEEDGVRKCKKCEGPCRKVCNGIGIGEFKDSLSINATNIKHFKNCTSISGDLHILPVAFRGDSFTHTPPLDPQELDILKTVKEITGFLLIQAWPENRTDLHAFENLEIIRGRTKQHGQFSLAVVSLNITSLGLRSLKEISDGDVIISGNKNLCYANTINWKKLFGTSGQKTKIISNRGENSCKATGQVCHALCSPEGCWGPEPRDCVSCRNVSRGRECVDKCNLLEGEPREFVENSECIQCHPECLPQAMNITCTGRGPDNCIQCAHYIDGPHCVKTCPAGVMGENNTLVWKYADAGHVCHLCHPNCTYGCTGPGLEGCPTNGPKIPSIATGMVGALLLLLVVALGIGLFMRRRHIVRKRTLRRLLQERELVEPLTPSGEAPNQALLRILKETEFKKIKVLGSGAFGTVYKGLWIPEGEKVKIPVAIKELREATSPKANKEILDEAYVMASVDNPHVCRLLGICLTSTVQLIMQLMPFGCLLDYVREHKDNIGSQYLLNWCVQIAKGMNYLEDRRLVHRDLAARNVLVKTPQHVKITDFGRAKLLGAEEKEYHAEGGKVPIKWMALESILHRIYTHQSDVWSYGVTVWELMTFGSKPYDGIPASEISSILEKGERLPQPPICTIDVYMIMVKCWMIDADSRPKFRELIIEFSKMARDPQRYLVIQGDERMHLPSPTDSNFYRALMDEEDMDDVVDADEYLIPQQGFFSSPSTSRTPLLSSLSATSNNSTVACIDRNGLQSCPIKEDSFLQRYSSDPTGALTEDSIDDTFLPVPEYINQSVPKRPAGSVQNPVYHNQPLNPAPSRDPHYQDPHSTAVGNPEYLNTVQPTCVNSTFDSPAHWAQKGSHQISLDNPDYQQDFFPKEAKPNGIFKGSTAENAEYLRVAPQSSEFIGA", "assay": "Phosphorylation activity inhibitory effect (in vitro) on mutant EGFR T790M/L858R", "type": "biochemical", "protocol": "(§1) Test Example 6 Measurement of Phosphorylation Activity Inhibitory Effect (In Vitro) on Wild-Type and Mutant EGFR\n(§2) The measurement of the in vitro inhibitory activity of a compound against wild-type and mutant EGFR was outsourced to Carna Biosciences, Inc. (Kinase Profiling Book, https://www.carnabio.com/japanese/product/search.cgi?mode=profiling).\n(§3) Specifically, first, the pyrimidine compound of the present invention was diluted stepwise with dimethyl sulfoxide (DMSO). […] To the reaction solution, Termination Buffer was added, so as to terminate the kinase reaction. Finally, using LabChip™ EZ Reader II (PerkinElmer), an unphosphorylated substrate peptide (S) and a phosphorylated peptide (P) were separated and detected according to microchannel capillary electrophoresis.\n(§4) As the pyrimidine compound of the present invention, the compound of Example 11 (Example compound 11) was used."}, "EGFR [d746-750/T790M]": {"target": "T2, EGFR [d746-750/T790M] (Homo sapiens, UniProt P00533, DEL746-750/T790M)", "T2 construct": "purchased Carna Biosciences, Inc", "T2 sequence (P00533 with tags, fused parts or gaps DEL746-750/T790M)": "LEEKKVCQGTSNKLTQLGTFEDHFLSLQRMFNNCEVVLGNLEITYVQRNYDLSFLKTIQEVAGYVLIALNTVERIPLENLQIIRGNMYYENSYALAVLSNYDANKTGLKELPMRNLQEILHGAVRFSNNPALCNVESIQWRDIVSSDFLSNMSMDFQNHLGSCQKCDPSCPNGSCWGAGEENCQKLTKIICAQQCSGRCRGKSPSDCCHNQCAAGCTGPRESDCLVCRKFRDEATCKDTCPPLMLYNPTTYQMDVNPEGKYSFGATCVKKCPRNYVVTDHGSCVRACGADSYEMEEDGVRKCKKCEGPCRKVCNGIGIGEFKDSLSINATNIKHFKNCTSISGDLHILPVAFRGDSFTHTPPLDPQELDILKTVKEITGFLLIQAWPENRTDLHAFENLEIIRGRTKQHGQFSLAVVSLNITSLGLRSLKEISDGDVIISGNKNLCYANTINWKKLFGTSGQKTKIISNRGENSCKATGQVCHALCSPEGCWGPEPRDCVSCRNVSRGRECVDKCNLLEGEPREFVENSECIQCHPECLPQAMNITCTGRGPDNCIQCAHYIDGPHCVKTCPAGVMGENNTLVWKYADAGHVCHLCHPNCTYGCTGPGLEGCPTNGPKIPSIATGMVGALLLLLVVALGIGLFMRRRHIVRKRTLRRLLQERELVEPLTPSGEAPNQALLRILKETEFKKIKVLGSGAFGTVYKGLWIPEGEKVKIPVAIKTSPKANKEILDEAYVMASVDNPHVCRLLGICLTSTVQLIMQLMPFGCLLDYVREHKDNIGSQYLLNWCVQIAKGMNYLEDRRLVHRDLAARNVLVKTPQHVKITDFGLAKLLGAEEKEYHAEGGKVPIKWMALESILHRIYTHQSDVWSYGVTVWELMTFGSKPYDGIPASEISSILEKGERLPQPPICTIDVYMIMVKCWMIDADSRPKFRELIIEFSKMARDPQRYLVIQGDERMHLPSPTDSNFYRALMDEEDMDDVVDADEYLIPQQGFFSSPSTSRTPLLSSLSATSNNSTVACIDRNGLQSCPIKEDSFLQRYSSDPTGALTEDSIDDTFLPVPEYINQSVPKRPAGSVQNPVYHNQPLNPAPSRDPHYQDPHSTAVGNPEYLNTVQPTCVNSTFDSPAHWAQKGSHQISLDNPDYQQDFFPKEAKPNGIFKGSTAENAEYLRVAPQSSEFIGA", "assay": "Phosphorylation activity inhibitory effect (in vitro) on mutant EGFR d746-750/T790M", "type": "biochemical", "protocol": "as §1, §2, §3, §4"}, "[1]": {"system": "Human stomach cancer-derived tumor cells 4-1ST", "details": "for BWC (%, Mean ± SE) / T/C (%) / TV (mm^3, mean ± SE): Day 15; for BWC (%, Mean ± SE) / T/C (%) / TV (mm^3, mean ± SE) / Number of Deaths: Days 1-14, po", "method": "Human stomach cancer-derived tumor cells 4-1ST were obtained as fragment tumor from the Central Institute for Experimental Animals. Tumor was removed approximately 1 month after subcutaneous transplantation and passage in a 6 week old male nude mouse (BALB/cAJc1-nu/nu, CLEA Japan, Inc.), and a fragment of approximately 2 mm square was prepared. A transplantation needle was filled with one fragment and subcutaneously inserted from around the right last rib of each nude mouse so as to enter the right back. The tumor was pushed out by pressing the inner syringe and thereby transplanted. For the measurement of the tumor size, electronic calipers were used. […] A tumor volume (TV) was calculated from this major axis and minor axis. A relative tumor volume change percentage (T/C) was calculated from the calculated tumor volume. TV and T/C were calculated according to the following equations:\n(§5) Tumor Volume (TV)(mm^3)=(Major axis,mm)×(Minor axis,mm)×(Minor axis,mm)/2\n(§6) Relative tumor volume change percentage (T/C)(%)=(Mean TV of the administration group)/(Mean TV of a control group)×100\n(§7) For the measurement of the body weight, an animal electronic balance was used. A body weight change percentage on the n^th day (BWCn) from the body weight on 0th day (BW0) and the body weight on the n^th day (BWn) was calculated according to the following equation:\n(§8) Body weight change percentage BWCn (%)=(BWn−BW0)/BW0×100\nNude mice having TV of 50 to 300 mm^3 were selected and assigned to groups each involving 6 animals by the equal number method [MiSTAT (ver. 2.1)] such that the means of TV were equal among the groups. […] An untreated group was used as a control.\n(§9) The presence or absence of a combinatorial effect and toxicity was judged from the tumor sizes and the body weights on the grouping day (Day 0) and the judgement day (Day 15). During the administration period, the body weight was measured every day for calculation of the amount of the dosing solution."}, "EGFR [d746-750]": {"target": "T3, EGFR [d746-750] (Homo sapiens, UniProt P00533, DEL746-750)", "T3 construct": "purchased Carna Biosciences, Inc", "T3 sequence (P00533 with tags, fused parts or gaps DEL746-750)": "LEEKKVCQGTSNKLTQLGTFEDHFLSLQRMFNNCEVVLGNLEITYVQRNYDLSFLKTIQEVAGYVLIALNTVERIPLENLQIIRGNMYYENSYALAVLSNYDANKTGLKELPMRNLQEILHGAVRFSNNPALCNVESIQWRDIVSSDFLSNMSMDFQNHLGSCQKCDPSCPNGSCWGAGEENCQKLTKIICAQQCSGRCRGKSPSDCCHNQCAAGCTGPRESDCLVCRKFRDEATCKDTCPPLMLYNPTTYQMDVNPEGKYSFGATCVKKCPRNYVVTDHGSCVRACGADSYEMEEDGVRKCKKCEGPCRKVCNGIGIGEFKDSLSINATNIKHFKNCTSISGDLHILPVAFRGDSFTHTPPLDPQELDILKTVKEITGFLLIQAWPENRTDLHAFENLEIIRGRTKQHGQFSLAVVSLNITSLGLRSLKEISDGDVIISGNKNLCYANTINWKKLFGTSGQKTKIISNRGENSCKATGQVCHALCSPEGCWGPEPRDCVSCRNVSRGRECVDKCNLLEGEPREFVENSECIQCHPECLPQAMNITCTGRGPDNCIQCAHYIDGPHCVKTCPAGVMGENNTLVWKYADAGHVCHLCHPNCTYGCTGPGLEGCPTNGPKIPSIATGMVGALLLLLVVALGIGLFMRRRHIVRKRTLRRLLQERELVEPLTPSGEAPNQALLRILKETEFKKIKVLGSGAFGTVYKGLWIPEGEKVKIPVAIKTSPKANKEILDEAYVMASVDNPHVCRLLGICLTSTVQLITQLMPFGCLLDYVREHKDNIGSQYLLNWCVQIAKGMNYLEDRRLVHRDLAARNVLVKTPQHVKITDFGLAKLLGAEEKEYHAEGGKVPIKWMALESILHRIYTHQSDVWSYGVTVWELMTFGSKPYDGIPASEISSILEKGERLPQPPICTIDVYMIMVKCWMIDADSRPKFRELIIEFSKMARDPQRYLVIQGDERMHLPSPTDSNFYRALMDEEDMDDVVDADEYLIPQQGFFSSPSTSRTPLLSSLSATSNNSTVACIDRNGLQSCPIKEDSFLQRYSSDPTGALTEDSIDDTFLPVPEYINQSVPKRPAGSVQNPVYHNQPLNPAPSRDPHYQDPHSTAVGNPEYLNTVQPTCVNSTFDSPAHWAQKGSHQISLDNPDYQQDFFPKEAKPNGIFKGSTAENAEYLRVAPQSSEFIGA", "assay": "Phosphorylation activity inhibitory effect (in vitro) on mutant EGFR d746-750", "type": "biochemical", "protocol": "as §1, §2, §3, §4"}, "[2]": {"system": "Human stomach cancer-derived tumor cells 4-1ST", "details": "for BWC (%, Mean ± SE) / T/C (%) / TV (mm^3, mean ± SE): Day 15; for BWC (%, Mean ± SE) / T/C (%) / TV (mm^3, mean ± SE) / Number of Death / cCR (%) / pCR (%): Days 1-14, po; for cCR (%): clinical CR (TV=0); for pCR (%): pathological CR", "method": "Tumor was removed approximately 1 month after subcutaneous transplantation and passage in a 6 week old male nude mouse (BALB/cAJc1-nu/nu, CLEA Japan, Inc.), and a fragment of approximately 2 mm square was prepared. A transplantation needle was filled with one fragment and subcutaneously inserted from around the right last rib of each nude mouse so as to enter the right back. The tumor was pushed out by pressing the inner syringe and thereby transplanted. For the measurement of the tumor size, electronic calipers were used. […] A tumor volume (TV) was calculated from this major axis and minor axis. A relative tumor volume change percentage (T/C) was calculated from the calculated tumor volume. TV and T/C were calculated according to the following equations:\nas §5, §6, §7, §8\nNude mice having TV of 100 to 300 mm^3 were selected and assigned to groups each involving 6 animals by the equal number method [MiSTAT (ver. 2.0)] such that the means of TV were equal among the groups. […] An untreated group was used as a control.\nas §9\nWhen an individual of TV=0 was found, a complete response (hereinafter, CR) rate was also set as an evaluation item. For the judgement of CR, clinical CR (cCR) based on TV=0 and pathological CR (pCR) based on pathological test were used.\nCR rate=(The number of CR individuals in a group found to have CR)/(Total number of individuals in the group found to have CR)×100"}, "EGFR": {"target": "T4, EGFR (Homo sapiens, UniProt P00533)", "T4 construct": "purchased Carna Biosciences, Inc", "assay": "Phosphorylation activity inhibitory effect (in vitro) on wild-type EGFR", "type": "biochemical", "protocol": "as §1, §2, §3, §4"}, "EGFR [D770_N771insNPG]": {"target": "T5, EGFR [D770_N771insNPG] (Homo sapiens, UniProt P00533, INS770NPG)", "T5 construct": "purchased Carna Biosciences, Inc", "T5 sequence (P00533 with tags, fused parts or gaps INS770NPG limits assumed)": "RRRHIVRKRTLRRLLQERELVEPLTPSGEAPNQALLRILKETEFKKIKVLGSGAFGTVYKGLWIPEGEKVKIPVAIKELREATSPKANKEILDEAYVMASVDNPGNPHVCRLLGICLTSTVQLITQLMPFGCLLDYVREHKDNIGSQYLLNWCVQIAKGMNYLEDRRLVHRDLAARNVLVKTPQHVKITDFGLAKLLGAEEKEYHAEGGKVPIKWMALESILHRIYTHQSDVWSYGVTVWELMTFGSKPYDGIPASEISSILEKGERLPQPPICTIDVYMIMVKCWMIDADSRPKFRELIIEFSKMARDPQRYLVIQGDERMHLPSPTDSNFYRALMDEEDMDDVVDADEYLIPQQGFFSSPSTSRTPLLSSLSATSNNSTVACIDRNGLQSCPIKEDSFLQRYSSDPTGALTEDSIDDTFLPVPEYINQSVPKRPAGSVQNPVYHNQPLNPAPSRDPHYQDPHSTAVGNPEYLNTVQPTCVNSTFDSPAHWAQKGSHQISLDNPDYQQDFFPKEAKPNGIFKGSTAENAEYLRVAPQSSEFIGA", "assay": "Phosphorylation activity inhibitory effect (in vitro) on mutant EGFR D770_N771insNPG", "type": "biochemical", "protocol": "as §1, §2, §3, §4"}},
  "note": "Read-outs that look alike come from different tables or passages of the source.",
  "data": [
    {"smiles": "C=CC(=O)N1C[C@H](n2c(C#CC)c(C(=O)N[C@H](C)c3ccccc3)c3c(N)ncnc32)C[C@@H]1C", "note": "[Example 2, 7-((3R,5S)-1-acryloyl-5-methylpyrrolidin-3-yl)-4-amino-N—((R)-1-phenylethyl)-6-(prop-1-yn-1-yl)-7H-pyrrolo[2,3-d]pyrimidine-5-carboxamide]", "values": [
      {"measurement": "body weight reduction of −20% or more", "setting": "NCI-N87-Luc", "value": "not observed"}
    ]},
    {"smiles": "C=CC(=O)N1C[C@H](n2c(C#CC3CC3)c(C(=O)N[C@H](C)c3ccccc3)c3c(N)ncnc32)C[C@@H]1C", "note": "[Example 11, 7-((3R,5S)-1-acryloyl-5-methylpyrrolidin-3-yl)-4-amino-6-(cyclopropylethynyl)-N—((R)-1-phenylethyl)-7H-pyrrolo[2,3-d]pyrimidine-5-carboxamide]", "values": [
      {"measurement": "IC50", "setting": "SK-BR-3 cells", "value": 6.6, "unit": "nM"},
      {"measurement": "IC50", "setting": "EGFR [T790M/L858R]", "value": 6.6, "unit": "nM"},
      {"measurement": "IC50", "setting": "EGFR [d746-750/T790M]", "value": 6.8, "unit": "nM"},
      {"measurement": "BWC (%, Mean ± SE)", "setting": "[1]; Example 11 6.25 mg/kg/day", "value": "3.69 ± 0.75", "unit": "%"},
      {"measurement": "T/C (%)", "setting": "[1]; Example 11 6.25 mg/kg/day", "value": 22.0, "unit": "%"},
      {"measurement": "TV (mm^3, mean ± SE)", "setting": "[1]; Example 11 6.25 mg/kg/day", "value": "448.7 ± 79.0", "unit": "mm^3"},
      {"measurement": "BWC (%, Mean ± SE)", "setting": "[1]; Example 11 12.5 mg/kg/day", "value": "3.79 ± 1.07", "unit": "%"},
      {"measurement": "T/C (%)", "setting": "[1]; Example 11 12.5 mg/kg/day", "value": 3.0, "unit": "%"},
      {"measurement": "TV (mm^3, mean ± SE)", "setting": "[1]; Example 11 12.5 mg/kg/day", "value": "62.0 ± 6.9", "unit": "mm^3"},
      {"measurement": "Number of Deaths", "setting": "[1]; Example 11 6.25 mg/kg/day", "value": 0},
      {"measurement": "Number of Deaths", "setting": "[1]; Example 11 12.5 mg/kg/day", "value": 0},
      {"measurement": "TV on Day 15 versus control group (Dunnett's test)", "setting": "[1]; trastuzumab iv Days 1 and 8 (except for the 20 mg/kg/day group), Example 11 po Days 1-14", "value": "significantly lower TV"},
      {"measurement": "IC50", "setting": "EGFR [d746-750]", "value": 0.25, "unit": "nM"},
      {"measurement": "body weight reduction of −20% or more", "setting": "NCI-N87-Luc", "value": "not observed"},
      {"measurement": "BWC (%, Mean ± SE)", "setting": "[2]; Example 11 6.25 mg/kg/day", "value": "5.93 ± 0.25", "unit": "%"},
      {"measurement": "T/C (%)", "setting": "[2]; Example 11 6.25 mg/kg/day", "value": 17.3, "unit": "%"},
      {"measurement": "TV (mm^3, mean ± SE)", "setting": "[2]; Example 11 6.25 mg/kg/day", "value": "295.9 ± 67.3", "unit": "mm^3"},
      {"measurement": "BWC (%, Mean ± SE)", "setting": "[2]; Example 11 12.5 mg/kg/day", "value": "4.77 ± 1.14", "unit": "%"},
      {"measurement": "T/C (%)", "setting": "[2]; Example 11 12.5 mg/kg/day", "value": 1.9, "unit": "%"},
      {"measurement": "TV (mm^3, mean ± SE)", "setting": "[2]; Example 11 12.5 mg/kg/day", "value": "31.9 ± 10.7", "unit": "mm^3"},
      {"measurement": "Number of Death", "setting": "[2]; Example 11 6.25 mg/kg/day", "value": 0},
      {"measurement": "Number of Death", "setting": "[2]; Example 11 12.5 mg/kg/day", "value": 0},
      {"measurement": "TV on Day 15 versus control group (Dunnett's test)", "setting": "[2]; T-mab and P-mab iv Day 1, Example 11 po Days 1-14", "value": "significantly lower TV"},
      {"measurement": "cCR (%)", "setting": "[2]; Example 11 6.25 mg/kg/day", "value": 0, "unit": "%"},
      {"measurement": "cCR (%)", "setting": "[2]; Example 11 12.5 mg/kg/day", "value": 33, "unit": "%"},
      {"measurement": "pCR (%)", "setting": "[2]; Example 11 6.25 mg/kg/day", "value": 0, "unit": "%"},
      {"measurement": "pCR (%)", "setting": "[2]; Example 11 12.5 mg/kg/day", "value": 33, "unit": "%"},
      {"measurement": "IC50", "setting": "EGFR", "value": 0.47, "unit": "nM"},
      {"measurement": "IC50", "setting": "EGFR [D770_N771insNPG]", "value": 0.55, "unit": "nM"}
    ]}
  ]
}
